What was measured:
Disease (blight) = experiment: Disease control test of pepper, blight; format: in vivo; conditions: 40 g active ingredient per mu
Protocol: This fertilizer was applied on the basis of conventional fertilization in each treatment area. Fertilization method: The fertilizer was applied by spraying during the seedling stage of pepper. The yield, quality and control effect on disease on pepper were determined.

[1] = tested on: root rot, a soil-borne disease of soybeans; experiment: Disease control test of soybean, root rot; format: in vivo
Protocol: Fertilization method: The fertilizer was co-applied with other fertilizers. The yield, quality and control effect on disease on soybean were determined.

Chinese wolfberry = experiment: Yield increase and quality test of Chinese wolfberry; format: in vivo, Chinese wolfberry "Ningqi No. 7"
Protocol: The test was carried out in a Chinese wolfberry planting test plot in Koluke Town, Delingha City, Qinghai Province. Chinese wolfberry plants were all three-year-old seedlings of variety “Ningqi No. 7” at a density of 270 plants/667 m^2. This experiment was designed such that different plots were arranged in order. […]. Fertilization method: It was applied together with other base fertilizers, by laying the fertilizer at the bottom of the planting pit, where the depth of the trench was 70 cm, the diameter of the pit was 80 cm, and the soil was mixed in and applied at the bottom when applying fertilizer. The yield, quality and control effect on disease on fresh Chinese wolfberry fruit were determined.

With γ-poly-glutamic acid the “Disease (blight): Control effect” value (Disease (blight); 10 days after application) was 26.27%, the “Disease (blight): Control effect” value (Disease (blight); 42 days after application) was 10.26% and the Control effect ([1]; 15 g/mu, 12 days after application) was 9.70%. The Control effect ([1]; 15 g/mu, 35 days after application) was 4.22%, the Control effect ([1]; 50 g/mu, 12 days after application) was 14.20% and the Control effect ([1]; 50 g/mu, 35 days after application) was 7.86%. The Control effect ([1]; 100 g/mu, 12 days after application) was 20.13%, the Control effect ([1]; 100 g/mu, 35 days after application) was 10.67% and the Control effect ([1]; 300 g/mu, 12 days after application) was 22.71%. It also gave a Control effect ([1]; 300 g/mu, 35 days after application) of 15.76%, a Control effect ([1]; 600 g/mu, 12 days after application) of 27.52% and a Control effect ([1]; 600 g/mu, 35 days after application) of 18.89%. For the same substance, the “Quality: Polysaccharide” value (Chinese wolfberry; 50 g/mu) was 8.79%, the “Quality: Total amino acid content” value (Chinese wolfberry; 50 g/mu) was 7.53% and the “Yield of fresh Chinese wolfberry fruit: Weight per 100 fruits” value (Chinese wolfberry; 50 g/mu) was 117.5 g. For the same substance, the “Yield of fresh Chinese wolfberry fruit: Yield” value (Chinese wolfberry; 50 g/mu) was 2524.5 kg/mu, the “Quality: Polysaccharide” value (Chinese wolfberry; 100 g/mu) was 9.54% and the “Quality: Total amino acid content” value (Chinese wolfberry; 100 g/mu) was 7.68%. The “Yield of fresh Chinese wolfberry fruit: Weight per 100 fruits” value (Chinese wolfberry; 100 g/mu) was 124.7 g and the “Yield of fresh Chinese wolfberry fruit: Yield” value (Chinese wolfberry; 100 g/mu) was 2658.6 kg/mu.
